Several values for one entry are separate records, joined by “and”; a condition that tells them apart may be missing. Equal entries are not always repeated.
Assays:
whole human blood = assay: In vitro production of Aα 17-21 epitope containing peptide in human blood, effect of ionophore concentration; assay type: cell-based; parameters: Aα 17-21 Epitope Containing (picomoles per ml blood): unit of the concentration uncertain; settings: for Aα 17-21 Epitope Containing (picomoles per ml blood): 15 minutes at 37°C
Protocol: The radioimmunoassay was conducted in a total volume of 300 ml with all dilutions carried out in assay buffer, Example 6. Standard solutions were prepared at concentrations in the range of 1 x 10⁻¹⁰M to 2 x 1O⁻⁸M which represents amounts of peptide ranging from 0.01 picomoles to 2.0 picomoles in the 100 ml aliquot used in the assay. The assay included antibody-free controls to measure non-specific binding, and controls containing antibody and probe without added standard samples or unknown samples to determine the control level of peptide binding. To 100 ml of buffer, standard sample or unknown was added, 100 ml of specific antiserum from Examples 2 and 7, diluted 1:1,000 in assay buffer. This was followed by the addition of […] of radioactive probe, 125I-Tyrosyl-Aα 1-21 fibrinogen peptide, diluted in assay buffer to yield approximately 15,000 to 20,000 cpm per 100 ml aliquot. The assay was incubated overnight at 4°C and the non-antibody-bound radioactive probe was separated from antibody-bound probe by adsorption onto dextran-coated activated charcoal, see Example 7. Each assay included charcoal-free controls, to which 1 ml PBS was added for the determination of total counts. Radioactivity was determined using a gamma counter and standard techniques known in the art.
The antibody-free control and the zero-peptide antibody control were counted to determine the 0% bound and 100% bound values respectively. The assay standards are then counted and divided by the antibody control to determine the percent bound and a standard curve was generated. When the percent bound is plotted as a function of the logarithem of the amount of peptide in the standard, a sigmoidal curve is generated which is close to linear between the limits of 80% bound and 20% bound. Unknowns are counted, their percent of control calculated and they are compared to the standard curve to determine the amount of peptide present in the sample. Only those unknowns with values between 80% and 20% of control binding are considered valid.
Duplicate 1.0 ml aliquots of freshly-drawn heparinized vaccutainers containing 50 u per ml whole human blood were incubated for 15 minutes at 37°C in the presence of calcium ionophore A23187 at concentrations ranging up to 200 mM. The calcium ionophore was dissolved in dimethyl sulfoxide (DMSO) with the DMSO concentration in blood kept constant at 0.2%. Following incubation the aliquots were placed on ice, centrifuged and the plasma collected. Plasma aliquots (400 ml) were removed and placed in 12 x 75 mm glass tubes and 1200 ml chilled ethanol was added to precipitate the protein. The sample was centrifuged and 800 ml of the supernatant fluid was removed and evaporated to dryness in a Speed-vac concentrator. The sample was reconstituted to original plasma volume with 200 ml of distilled water. Duplicate […] aliquots were assayed for Aα 17-21 epitope containing peptide (Aα 1-21) as described in this Example. […]

whole blood = assay: In vitro production of Aα 17-21 epitope containing peptide in whole blood, ionophore incubation time; assay type: cell-based, human; parameters: dose or concentration left out as unconfirmed
Protocol: Calcium ionophore A23187 was added to replicate 1.0 ml aliquots of freshly-drawn heparinized whole blood as described above, to a final concentration of 150 mM. Additional control aliquots of blood received DMSO at a concentration of 0.2%. The blood aliquots were incubated at 37° for various time intervals ranging up to 60 minutes. Following the incubation, plasma was prepared, processed and assayed as above.

[1] = tested on: Whole Blood of PiZZ and Normal Individuals; assay: A23187-stimulated production of fibrinogen cleavage peptide in blood of PiZZ and normal individuals; assay type: cell-based, human; parameters: dose or concentration left out as unconfirmed; settings: 37° for 25 minutes, one value per individual
Protocol: Heparinized venous blood was drawn from four individuals who process the PiZZ phenotype, deficient for alpha-1 proteinase inhibitor. Blood was also collected from two normal volunteers. Calcium ionophore A23187 was added to replicate aliquots of the freshly drawn blood to a final concentration of 150 mM. The blood was incubated at 37° for 25 minutes, the plasma collected and assayed cleavage peptide.
Values are expressed as pM Aα 17-21 epitope containing peptide produced per ml of plasma. The blood samples derived from the four individuals who were genetically deficient in alpha-1 proteinase inhibitor produced greater amounts of peptide than did those derived from the normal volunteers. Under basal conditions no fibrinogen cleavage products could be detected in the blood of any of the donors.

[2] = tested on: Rabbit antiserum prepared against the Aα 17-21 immunogen; assay: Antibody specificity radioimmunoassay, rabbit antiserum; assay type: binding; settings: antiserum 1:1,000; probe ¹⁵I-tyrosyl-Aα 1-21; amount in 100 ml aliquot
Protocol: Antibody specificity was determined by evaluating the ability of unlabelled peptides, specificity probes, of varying length, see Example 6, to inhibit the binding of the Aα 1-21radioactive probe. Rabbit antiserum prepared against the Aα 17-21 immunogen described in Example 2 was diluted in assay buffer, see Example 6, at a dilution of 1:1,000. The specificity peptides of Example 5 were diluted in assay buffer at concentrations ranging from 1.6 x 10⁻¹⁰ M to 1 x 10⁻⁵ M. One hundred ml of each dilution was added to 100 ml of antiserum and 100 ml of radioactive probe. This represents specificity probe peptide in concentrations ranging from 0.016 picomoles to 1.0 nanomoles in the 100 ml aliquot used in the assay. The radioactive probe […], see Example 5, was diluted in assay buffer to yield approximately 20,000 cpm per 100 ml aliquot, the amount used per sample or control. The assay was set up in a volume of 300 ml, with the volume made up where necessary with assay buffer. […]
The antibody-free control and the zero-peptide antibody control are counted to determine the 0% bound and the 100% bound values respectively. Radioactivity was determined using a gamma counter and standard techniques known in the art. The samples containing the test peptides are then counted and the amount of radioactivity associated with the antibody-free control subtracted from each. […]

Guinea Pig (#3) = assay: Antibody specificity radioimmunoassay, guinea pig antiserum; assay type: binding; settings: probe ¹⁵I-tyrosyl-Aα 1-21

Molecule: CNc1ccc2oc(C[C@H]3O[C@@]4(CC[C@H]3C)O[C@H]([C@H](C)C(=O)c3ccc[nH]3)[C@H](C)C[C@H]4C)nc2c1C(=O)O [A23187]
- Aα 17-21 Epitope Containing (picomoles per ml blood) (whole human blood; Ionophore Concentration 5 (unit uncertain)): 1.2 picomoles per ml blood
- Aα 17-21 Epitope Containing (picomoles per ml blood) (whole human blood; Ionophore Concentration 15 (unit uncertain)): 1.6 picomoles per ml blood
- Aα 17-21 Epitope Containing (picomoles per ml blood) (whole human blood; Ionophore Concentration 25 (unit uncertain)): 2.6 picomoles per ml blood
- Aα 17-21 Epitope Containing (picomoles per ml blood) (whole human blood; Ionophore Concentration 50 (unit uncertain)): 2.8 picomoles per ml blood
- Aα 17-21 Epitope Containing (picomoles per ml blood) (whole human blood; Ionophore Concentration 100 (unit uncertain)): 4.0 picomoles per ml blood
- Aα 17-21 Epitope Containing (picomoles per ml blood) (whole human blood; Ionophore Concentration 150 (unit uncertain)): 4.1 picomoles per ml blood
- Aα 17-21 Epitope Containing (picomoles per ml blood) (whole human blood; Ionophore Concentration 200 (unit uncertain)): 3.8 picomoles per ml blood
- concentration giving optimal production of Aα 17-21 epitope-containing peptide (whole human blood; whole human blood): 150 mM
- Aα 17-21 Epitope (picomoles/ml plasma) (whole blood; Incubation Time 2.5 minutes): 2.3 picomoles/ml plasma
- Aα 17-21 Epitope (picomoles/ml plasma) (whole blood; Incubation Time 7.5 minutes): 2.8 picomoles/ml plasma
- Aα 17-21 Epitope (picomoles/ml plasma) (whole blood; Incubation Time 10.0 minutes): 3.5 picomoles/ml plasma
- Aα 17-21 Epitope (picomoles/ml plasma) (whole blood; Incubation Time 15.0 minutes): 3.7 picomoles/ml plasma
- Aα 17-21 Epitope (picomoles/ml plasma) (whole blood; Incubation Time 20.0 minutes): 3.7 picomoles/ml plasma
- Aα 17-21 Epitope (picomoles/ml plasma) (whole blood; Incubation Time 25.0 minutes): 3.8 picomoles/ml plasma
- Aα 17-21 Epitope (picomoles/ml plasma) (whole blood; Incubation Time 30.0 minutes): 3.8 picomoles/ml plasma
- Aα 17-21 Epitope (picomoles/ml plasma) (whole blood; Incubation Time 40.0 minutes): 3.6 picomoles/ml plasma
- Aα 17-21 Epitope (picomoles/ml plasma) (whole blood; Incubation Time 50.0 minutes): 3.1 picomoles/ml plasma
- Aα 17-21 Epitope (picomoles/ml plasma) (whole blood; Incubation Time 60.0 minutes): 3.2 picomoles/ml plasma
- Aα 17-21 Epitope (picomoles/ml plasma) (whole blood; Incubation Time <1.0 minutes): 0.7 picomoles/ml plasma
- Aα 17-21 epitope containing peptide produced per ml of plasma, A23187 ([1]; Normal individuals): 4.2 pM per ml of plasma and 4.6 pM per ml of plasma
- Aα 17-21 epitope containing peptide produced per ml of plasma, A23187 ([1]; PiZZ individuals): 8.4 pM per ml of plasma and 26.5 pM per ml of plasma and 20.5 pM per ml of plasma and 17.8 pM per ml of plasma

Molecule: Gly-Pro-Arg-Val-Val (GPRVV; printed: Gly-Pro-Arg-Val-Val) [Aα 17-21]
- Inhibitory Concentration (IC₅₀) picomoles Rabbit (#20) [2]: 1.6 picomoles
- Inhibitory Concentration (IC₅₀) picomoles Guinea Pig (#3) (Guinea Pig (#3)): 10 picomoles

Reference: patent publication EP0345906B1, “Unique elastase induced fibrinogen cleavage site antigens” (MERCK & CO. INC., priority 1988, dated 1989)
